These results are taken from US7244727B2, “Fused bicyclic nitrogen-containing heterocycles” (Japan Tobacco Inc., priority 2002, dated 2007).

The term IC50 denotes the concentration that gives 50% inhibition.

The test has as its target T1, human DGAT1 (Homo sapiens, UniProt O75907).
T1 construct: made in house; host or cells: insect cells (sf9, sf21 or High Five) infected with baculovirus; total cell membranes
T1 sequence (O75907 1-488): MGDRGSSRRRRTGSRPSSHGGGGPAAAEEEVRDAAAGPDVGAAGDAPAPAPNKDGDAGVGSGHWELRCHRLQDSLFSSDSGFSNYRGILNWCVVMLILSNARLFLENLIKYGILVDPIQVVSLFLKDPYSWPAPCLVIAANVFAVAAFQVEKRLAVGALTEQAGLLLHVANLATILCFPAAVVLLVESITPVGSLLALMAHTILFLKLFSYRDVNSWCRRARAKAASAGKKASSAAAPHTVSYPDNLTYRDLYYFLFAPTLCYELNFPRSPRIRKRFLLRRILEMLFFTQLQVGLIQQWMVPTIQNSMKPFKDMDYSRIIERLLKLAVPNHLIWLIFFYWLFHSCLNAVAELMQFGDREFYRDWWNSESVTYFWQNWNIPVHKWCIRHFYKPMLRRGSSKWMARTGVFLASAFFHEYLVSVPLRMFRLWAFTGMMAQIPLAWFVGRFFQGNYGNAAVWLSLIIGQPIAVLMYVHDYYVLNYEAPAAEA
Kind of test: DGAT Scintillation Proximity Assay (SPA) with membranes of insect cells expressing human flagtag DGAT1. The note with it: read-out: hDGAT1 IC50. It is filed as biochemical. On the procedure: In such an assay human DGAT1 is cloned from a human liver cDNA library. PCR is used to add a restriction site and flag epitope at the most 5′ end and a restriction site at the 3′ end of the sequence. Thereafter, human flagtag (FT) DGAT1 baculovirus may be generated using a Bac-to-Bac Baculovirus Expression System® (Invitrogen). Insect cells (e.g., sf9, sf2 1, or High Five) are infected for 24 to 72 h and collected by centrifugation. Cell pellets are resuspended in homogenization buffer and lysed using a homogenization device, such as a Microfluidizer. Total cell membranes are collected by ultracentrifugation at 45,000 rpm for 1 h.
A small aliquot (0.2 μg/well) of membrane is incubated with 10 μM compound or mercuric chloride (as positive control for inhibition) in the presence of enzyme substrate, dioleoyl glycerol (200 μM) in 384 well plates, final volume 50 gL per well. […] The reaction is stopped by adding Wheat Germ Agglutinin (WGA) SPA beads (0.2 mg) in mercuric chloride. Cell membranes are allowed to couple to the beads overnight. The signal can be measured using, for example, a Chemiluminescence Image Plate Reader (CLIPR) or TopCount device.
A general note: SPA uses beads or plates that emit light when radiolabelled molecules are held near them.
Consider `CCC(C(=O)O)C1CCC(c2ccc(C3=Nc4c(N)ncnc4OC3(C)C)cc2)CC1` (stereo not drawn) [Example 10], for which the IC50 was below 10 nM.

Take `Cc1nc(N)c2c(n1)OC(C)(C)C(c1ccc(C3CCC(C4(C(=O)O)CC4)CC3)cc1)=N2` (stereo not drawn) [Example 10-21]: the IC50 was 10 to 100 nM.

Consider `CC1(C)Oc2ncnc(N)c2N=C1c1ccc(C2CCC(c3cc(O)no3)CC2)cc1` (stereo not drawn) [Example 10-8], for which the concentration for half-maximal inhibition (IC50) fell in the range of 10 to 100 nM. As to `CC1(C)Oc2nc(C(F)(F)F)nc(N)c2N=C1c1ccc2c(c1)CCC21CCC(C2(C(=O)O)CC2)CC1` (stereo not drawn) [Example 10-25], the IC50 is 10 to 100 nM. As for `CC(C)(C)OC(=O)N1CCN(C[C@H]2CC[C@H](c3ccc(C4=Nc5c(N)ncnc5OC4(C)C)cc3)CC2)CC1` [Example 2-242], the figure is above 100 nM; as for `Cc1nc(N)c2c(n1)OC(C)(C)C(c1ccc([C@H]3CC[C@H](Cc4cc(O)[nH]n4)CC3)cc1)=N2` [Example 2-155], 10 to 100 nM.

As to `CCc1nc(N)c2c(n1)OC(C)(C)C(c1ccc([C@H]3CC[C@H](CC(=O)O)CC3)cc1)N2` (stereo partly drawn) [Example 10-23], the IC50 was in the range of 10 to 100 nM.

Regarding `CN(C)C(=O)C=C1CCC(c2ccc(C3=Nc4c(N)ncnc4OC3(C)C)cc2)CC1` (stereo not drawn) [Example 2-44], the IC50 lay within 10 to 100 nM.

Regarding `CC1(C)Oc2ncnc(N)c2N=C1c1ccc(N2CCC(Cc3ccccc3)CC2)cc1` [Example 4-2], the IC50 was above 100 nM. Consider `COc1ccc2[nH]c(C[C@H]3CC[C@H](c4ccc(C5=Nc6c(N)ncnc6OC5(C)C)cc4)CC3)nc2c1` [Example 2-121], for which the IC50 was in the range of 10 to 100 nM. As for `CC1(C)Oc2ncnc(N)c2N=C1c1ccc(C2CCC(=CC(N)=O)CC2)cc1` (stereo not drawn) [Example 2-46], the figure is 10 to 100 nM. The value for `CC1(C)Oc2ncnc(N)c2NC1c1ccc([C@H]2CC[C@H](CCO)CC2)cc1` (stereo partly drawn) [Example 2-81] was above 100 nM.

With `Cc1nc(N)c2c(n1)OC(C)(C)C(c1ccc([C@H]3CC[C@H](CN4CC(C)(C)C(O)C4=O)CC3)cc1)=N2` (stereo partly drawn) [Example 2-167], the IC50 fell in the range of 10 to 100 nM.

As to `CC1(C)Oc2ncnc(N)c2N=C1c1ccc(C2CCNCC2)cc1` [Example 3-2], the IC50 was above 100 nM.

For the compound `CC1(C)Oc2ncnc(N)c2N=C1c1ccc2c(c1)CC[C@@H]1C/C(=C\C(=O)O)CC[C@H]21` [Example 10-2], the IC50 lay within 10 to 100 nM. On to `CC1(C)Oc2ncnc(N)c2N=C1c1ccc2c(c1)COC21CCC(CC(=O)O)CC1` (stereo not drawn) [Example 8-2], for which the IC50 is 10 to 100 nM. Consider `Cc1nc(N)c2c(n1)OC(C)(C)C(c1ccc(CC3CCC(C(=O)O)CC3)cc1)=N2` (stereo not drawn) [Example 10-29], for which the IC50 was in the range of 10 to 100 nM. As for `CC1(C)Oc2ncnc(N)c2N=C1c1ccc([C@H]2CC[C@H](CN3CCC(O)(c4ccccc4)CC3)CC2)cc1` [Example 2-226], the figure is above 100 nM; as for `CC1(C)Oc2ncnc(N)c2N=C1c1ccc(C2CCC(=CC(=O)NCCO)CC2)cc1` (stereo not drawn) [Example 2-48], 10 to 100 nM; as for `CC1(C)Oc2nc(C(F)(F)F)nc(N)c2N=C1c1ccc(C2CCC(C3(C(=O)O)CC3)CC2)cc1` (stereo not drawn) [Example 10-19], 10 to 100 nM. Consider `CC1(C)Oc2ncnc(N)c2N=C1c1ccc(C2CCC(c3cc(O)on3)CC2)cc1` (stereo not drawn) [Example 10-9], for which the IC50 was 10 to 100 nM. Consider `CN1CCN(C[C@H]2CC[C@H](c3ccc(C4=Nc5c(N)ncnc5OC4(C)C)cc3)CC2)CC1` [Example 2-230], for which the IC50 was 10 to 100 nM. For the compound `Nc1ncnc2c1N=C(c1ccc(Br)s1)CO2` [Example 1-24], the IC50 is above 100 nM.

Turning to `Cc1nc(N)c2c(n1)OC(C)(C)C(c1ccc([C@H]3CC[C@H](C(C)C(=O)O)CC3)cc1)=C2` (stereo partly drawn) [Example 10-30], the IC50 fell in the range of 10 to 100 nM. The value for `CC1(C)Oc2ncnc(N)c2N=C1c1ccc2c(c1)CCC21CCC(CC(=O)O)CC1` (stereo not drawn) [Example 10-10] was below 10 nM.

As for `CC1(C)Oc2ncnc(N)c2NC1c1ccc([C@H]2CC[C@H](CO)CC2)cc1` (stereo partly drawn) [Example 2-223], the concentration for half-maximal inhibition (IC50) was above 100 nM. Consider `CC1(C)Oc2ncnc(N)c2N=C1c1ccc([C@H]2CC[C@H](CO)CC2)cc1` [Example 2-216], for which the IC50 lay in the range of 10 to 100 nM. In the case of `Cc1nc(N)c2c(n1)OC(C)(C)C(c1ccc([C@H]3CC[C@H](CNC(=O)COC(=O)CCC(=O)O)CC3)cc1)=N2` [Example 2-49], the IC50 lay within 10 to 100 nM. Turning to `CN(C)CCNC(=O)C=C1CCC(c2ccc(C3=Nc4c(N)ncnc4OC3(C)C)cc2)CC1` (stereo not drawn) [Example 2-51], the IC50 was in the range of 10 to 100 nM. The value for `CC1(C)Oc2ncnc(N)c2N=C1c1ccc2c(c1)CCC21CCC(C(C)(C)C(=O)O)CC1` (stereo not drawn) [Example 10-13] was below 10 nM; that for `Cc1nc(N)c2c(n1)OC(C)(C)C(c1ccc3c(c1)CCC31CCC(C(C)(C)C(=O)O)CC1)=N2` (stereo not drawn) [Example 10-16] was 10 to 100 nM; that for `CC(C(=O)O)C1CCC2(CCc3cc(C4=Nc5c(N)nc(C(F)(F)F)nc5OC4(C)C)ccc32)CC1` (stereo not drawn) [Example 10-17] was below 10 nM. For `CC1(C)Oc2ncnc(N)c2N=C1c1ccc(C2CCC3(CC2)CC3C(=O)O)cc1` (stereo not drawn) [Example 10-4], the IC50 lay within 10 to 100 nM. As for `CC1(C)Oc2ncnc(N)c2N=C1c1ccc2c(c1)CCCC21CCC(C2(C(=O)O)CC2)CC1` (stereo not drawn) [Example 10-12], the figure is 10 to 100 nM. As for `Cc1nc(N)c2c(n1)OC(C)(C)C(c1ccc([C@H]3CC[C@H](CC4=NS(=O)ON4)CC3)cc1)=N2` (stereo partly drawn) [Example 2-153], the figure is below 10 nM; as for `CN1CCN(C(=O)C=C2CCC(c3ccc(C4=Nc5c(N)ncnc5OC4(C)C)cc3)CC2)CC1` (stereo not drawn) [Example 2-50], 10 to 100 nM; as for `CC(C(=O)O)C1CCC(c2ccc(C3=Nc4c(N)nc(C(F)(F)F)nc4OC3(C)C)cc2)CC1` (stereo not drawn) [Example 10-15], below 10 nM.

In the case of `Cc1nc(N)c2c(n1)OC(C)(C)C(c1ccc([C@H]3CC[C@H](CN4CCNC4=O)CC3)cc1)=N2` [Example 2-171], the IC50 was above 100 nM. Regarding `CC1(C)Oc2ncnc(N)c2N=C1c1ccc2c(c1)CCC[C@]21CC[C@@H](CC(=O)O)CC1` [Example 8], the IC50 is below 10 nM. On to `CCC(C(=O)O)C1CCC(c2ccc(C3=Nc4c(N)nc(C)nc4OC3(C)C)cc2)CC1` (stereo not drawn) [Example 10-27], for which the IC50 lay within 10 to 100 nM.

In the case of `Cc1nc(N)c2c(n1)OC(C)(C)C(c1ccc3c(c1)CCC31CCC([C@@H](C)C(=O)O)CC1)=N2` (stereo partly drawn) [Example 8-4], the IC50 lay in the range of 10 to 100 nM. On to `CC1(C)Oc2ncnc(N)c2N=C1c1ccc(C2CCC(C3(C(=O)O)CC3)CC2)cc1` (stereo not drawn) [Example 10-5], for which the concentration for half-maximal inhibition (IC50) is 10 to 100 nM. Turning to `CC1(C)Oc2ncnc(N)c2N=C1c1ccc(C2CCC(C(C)(C)C(=O)O)CC2)cc1` (stereo not drawn) [Example 10-3], the concentration for half-maximal inhibition (IC50) was below 10 nM. Turning to `CC1(C)Oc2ncnc(N)c2N=C1c1ccc([C@H]2CC[C@H](CN3CCC(O)CC3)CC2)cc1` [Example 2-225], the IC50 is above 100 nM. In the case of `CC1(C)Oc2nc(C(F)(F)F)nc(N)c2N=C1c1ccc(C2CCC(C(C)(C)C(=O)O)CC2)cc1` (stereo not drawn) [Example 10-20], the IC50 lay within 10 to 100 nM. As for `CC(C(=O)O)[C@H]1CC[C@H](c2ccc(C3=Cc4c(N)ncnc4OC3(C)C)cc2)CC1` (stereo partly drawn) [Example 10-31], the figure is 10 to 100 nM; as for `Cc1nc(N)c2c(n1)OC(C)(C)C(c1ccc([C@H]3CC[C@H](CC(=O)O)CC3)c(C)c1)=N2` [Example 10-22], 10 to 100 nM. Regarding `Cc1nc(N)c2c(n1)OC(C)(C)C(c1ccc3c(c1)CCC31CCC(C3(C(=O)O)CC3)CC1)=N2` (stereo not drawn) [Example 10-24], the half-maximal inhibitory concentration (IC50) was in the range of 10 to 100 nM. As for `CCc1nc(N)c2c(n1)OC(C)(C)C(c1ccc(C3CCC(CC(=O)O)CC3)cc1)=N2` (stereo not drawn) [Example 10-18], the 50% inhibitory concentration (IC50) was in the range of 10 to 100 nM. `CC1(C)Oc2ncnc(N)c2N=C1c1ccc(C2CCC(c3cc(O)[nH]n3)CC2)cc1` (stereo not drawn) [Example 10-7]: the IC50 was in the range of 10 to 100 nM.

`CC1(C)Oc2ncnc(N)c2N=C1c1ccc(C2CCC(N3CCCCC3)CC2)cc1` (stereo not drawn) [Example 2-90]: the IC50 is above 100 nM. With `Cc1nc(N)c2c(n1)OC(C)(C)C(c1ccc(C3CCC(C(C)(C)C(=O)O)CC3)cc1)=N2` (stereo not drawn) [Example 10-14], the IC50 lay within 10 to 100 nM. As for `CC1(C)Oc2nc(C(F)(F)F)nc(N)c2N=C1c1ccc2c(c1)CCC21CCC(C(C)(C)C(=O)O)CC1` (stereo not drawn) [Example 10-26], the figure is 10 to 100 nM. As for `Cc1nc(N)c2c(n1)OC(C)(C)C(c1ccc(C3CCC([C@H](C)C(=O)O)CC3)cc1)=N2` (stereo partly drawn) [Example 9-2], the figure is 10 to 100 nM; as for `Cc1nc(N)c2c(n1)OC(C)(C)C(c1ccc(C3CCC(C(C)C(=O)O)CC3)cc1)=N2` (single isomer, unassigned) [Example 9], 10 to 100 nM. Consider `Nc1ncnc2c1N=C(c1ccccc1Br)CO2` [Example 1-5], for which the IC50 was above 100 nM. In the case of `Cc1nc(N)c2c(n1)OC(C)(C)C(c1ccc3c(c1)CC[C@]31CC[C@@H](CC(=O)O)CC1)=N2` [Example 8-6], the half-inhibitory concentration (IC50) lay in the range of 10 to 100 nM.
